Test results as given in PubChem BioAssay AID2060494 (Molecular Pharmacology Branch, DTP, NCI, 2025).

Test system: 435261-313-R-J1-PDC complex spheroid viability
Test: Anticancer human tumor 435261-313-R-J1-PDC patient-derived colon adenocarcinoma cell line growth inhibition [GQUAD]
Conditions: for IC50: curve of first compound; for viability, T/C: stronger effect = lower value
How it was run: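 Viability of tumor cells grown as complex spheroids with endothelial and stromal cells, exposed to drug combinations. Top concentration at or near clinical Cmax (else 10 microM), diluted in half-log increments.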

[1] = second compound 0.0316 µM, first compound 0.0316 µM
[2] = second compound 0.0316 µM, first compound 0.1 µM
[3] = second compound 0.0316 µM, first compound 0.316 µM
[4] = second compound 0.0316 µM, first compound 1 µM
[5] = second compound 0.0316 µM, first compound 3.16 µM
[6] = second compound 0.0316 µM, first compound 10 µM
[7] = second compound 0.1 µM, first compound 0.0316 µM
[8] = second compound 0.1 µM, first compound 0.1 µM
[9] = second compound 0.1 µM, first compound 0.316 µM
[10] = second compound 0.1 µM, first compound 1 µM
[11] = second compound 0.1 µM, first compound 3.16 µM
[12] = second compound 0.1 µM, first compound 10 µM
[13] = second compound 0.316 µM, first compound 0.0316 µM
[14] = second compound 0.316 µM, first compound 0.1 µM
[15] = second compound 0.316 µM, first compound 0.316 µM
[16] = second compound 0.316 µM, first compound 1 µM
[17] = second compound 0.316 µM, first compound 3.16 µM
[18] = second compound 0.316 µM, first compound 10 µM
[19] = second compound 1 µM, first compound 0.0316 µM
[20] = second compound 1 µM, first compound 0.1 µM
[21] = second compound 1 µM, first compound 0.316 µM
[22] = second compound 1 µM, first compound 1 µM
[23] = second compound 1 µM, first compound 3.16 µM
[24] = second compound 1 µM, first compound 10 µM
[25] = second compound 3.16 µM, first compound 0.0316 µM
[26] = second compound 3.16 µM, first compound 0.1 µM
[27] = second compound 3.16 µM, first compound 0.316 µM
[28] = second compound 3.16 µM, first compound 1 µM
[29] = second compound 3.16 µM, first compound 3.16 µM
[30] = second compound 3.16 µM, first compound 10 µM
[31] = second compound 10 µM, first compound 0.0316 µM
[32] = second compound 10 µM, first compound 0.1 µM
[33] = second compound 10 µM, first compound 0.316 µM
[34] = second compound 10 µM, first compound 1 µM
[35] = second compound 10 µM, first compound 3.16 µM
[36] = second compound 10 µM, first compound 10 µM
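Further: spheroids exposed to the agents for seven days before readout.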
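Wherever viability, T/C is given: percent of vehicle control viability with DMSO wells as 100%.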

Compound: CC(C)(O)C1CCC(Nc2ccc3ncc(-c4cccc(C(F)(F)F)c4)n3n2)CC1 (stereo not drawn) + Cc1[nH]c2ccc(F)cc2c1-c1nc2c3cccnc3c3ncccc3c2[nH]1
- IC50 (second compound 0.0316 µM): 605 nM
- IC50 (second compound 0.1 µM): 683 nM
- IC50 (second compound 0.316 µM): 520 nM
- IC50 (second compound 1 µM): 229 nM
- IC50 (second compound 3.16 µM): < 31.6 nM
- IC50 (second compound 10 µM): < 31.6 nM
- viability, T/C [1]: 85.1%
- viability, T/C [2]: 93.4%
- viability, T/C [3]: 79%
- viability, T/C [4]: 27.4%
- viability, T/C [5]: 6.6%
- viability, T/C [6]: 11.2%
- viability, T/C [7]: 80%
- viability, T/C [8]: 79.6%
- viability, T/C [9]: 98.3%
- viability, T/C [10]: 32.2%
- viability, T/C [11]: 8.63%
- viability, T/C [12]: 8.09%
- viability, T/C [13]: 92.8%
- viability, T/C [14]: 90.7%
- viability, T/C [15]: 64.5%
- viability, T/C [16]: 31.5%
- viability, T/C [17]: 3.9%
- viability, T/C [18]: 11.5%
- viability, T/C [19]: 63.4%
- viability, T/C [20]: 61%
- viability, T/C [21]: 44.1%
- viability, T/C [22]: 27.3%
- viability, T/C [23]: 6.32%
- viability, T/C [24]: 5.71%
- viability, T/C [25]: 23.6%
- viability, T/C [26]: 19.2%
- viability, T/C [27]: 30.8%
- viability, T/C [28]: 22.3%
- viability, T/C [29]: 3.91%
- viability, T/C [30]: 3.07%
- viability, T/C [31]: 18.3%
- viability, T/C [32]: 20.8%
- viability, T/C [33]: 18.5%
- viability, T/C [34]: 20.4%
- viability, T/C [35]: 1.4%
- viability, T/C [36]: 3.39%

Compound: Cc1[nH]c2ccccc2c1CCNCc1ccc(/C=C/C(=O)NO)cc1 + Cc1[nH]c2ccc(F)cc2c1-c1nc2c3cccnc3c3ncccc3c2[nH]1
- IC50 (second compound 0.0316 µM): 97.9 nM
- IC50 (second compound 0.1 µM): 105 nM
- IC50 (second compound 0.316 µM): 77.9 nM
- IC50 (second compound 1 µM): 106 nM
- IC50 (second compound 3.16 µM): < 0.999 nM
- IC50 (second compound 10 µM): < 0.999 nM
- viability, T/C (second compound 0.0316 µM, first compound 0.000999 µM): 86%
- viability, T/C (second compound 0.0316 µM, first compound 0.00316 µM): 70.3%
- viability, T/C (second compound 0.0316 µM, first compound 0.00999 µM): 77.2%
- viability, T/C [1]: 98.1%
- viability, T/C (second compound 0.0316 µM, first compound 0.0999 µM): 49.4%
- viability, T/C [3]: 4.41%
- viability, T/C (second compound 0.1 µM, first compound 0.000999 µM): 91.7%
- viability, T/C (second compound 0.1 µM, first compound 0.00316 µM): 65.4%
- viability, T/C (second compound 0.1 µM, first compound 0.00999 µM): 96.8%
- viability, T/C [7]: 66.1%
- viability, T/C (second compound 0.1 µM, first compound 0.0999 µM): 53.1%
- viability, T/C [9]: 11.9%
- viability, T/C (second compound 0.316 µM, first compound 0.000999 µM): 64.1%
- viability, T/C (second compound 0.316 µM, first compound 0.00316 µM): 81.8%
- viability, T/C (second compound 0.316 µM, first compound 0.00999 µM): 61.8%
- viability, T/C [13]: 68.1%
- viability, T/C (second compound 0.316 µM, first compound 0.0999 µM): 45.2%
- viability, T/C [15]: 9.8%
- viability, T/C (second compound 1 µM, first compound 0.000999 µM): 46.7%
- viability, T/C (second compound 1 µM, first compound 0.00316 µM): 71.7%
- viability, T/C (second compound 1 µM, first compound 0.00999 µM): 49.9%
- viability, T/C [19]: 58.6%
- viability, T/C (second compound 1 µM, first compound 0.0999 µM): 52.1%
- viability, T/C [21]: 7.21%
- viability, T/C (second compound 3.16 µM, first compound 0.000999 µM): 41.2%
- viability, T/C (second compound 3.16 µM, first compound 0.00316 µM): 39.5%
- viability, T/C (second compound 3.16 µM, first compound 0.00999 µM): 24.2%
- viability, T/C [25]: 33.8%
- viability, T/C (second compound 3.16 µM, first compound 0.0999 µM): 26%
- viability, T/C [27]: 0.48%
- viability, T/C (second compound 10 µM, first compound 0.000999 µM): 29.5%
- viability, T/C (second compound 10 µM, first compound 0.00316 µM): 28.2%
- viability, T/C (second compound 10 µM, first compound 0.00999 µM): 28.1%
- viability, T/C [31]: 33.3%
- viability, T/C (second compound 10 µM, first compound 0.0999 µM): 27.8%
- viability, T/C [33]: 0.79%

Compound: O=C(NO)c1cnc(N2CCN(S(=O)(=O)c3ccc4ccccc4c3)CC2)nc1 + Cc1[nH]c2ccc(F)cc2c1-c1nc2c3cccnc3c3ncccc3c2[nH]1
- IC50 (second compound 0.0316 µM): 430 nM
- IC50 (second compound 0.1 µM): 503 nM
- IC50 (second compound 0.316 µM): 600 nM
- IC50 (second compound 1 µM): 541 nM
- IC50 (second compound 3.16 µM): < 31.6 nM
- IC50 (second compound 10 µM): < 31.6 nM
- viability, T/C [1]: 72.4%
- viability, T/C [2]: 66.6%
- viability, T/C [3]: 52.3%
- viability, T/C [4]: 37.3%
- viability, T/C [5]: 0.25%
- viability, T/C [6]: 0.68%
- viability, T/C [7]: 72.8%
- viability, T/C [8]: 79.5%
- viability, T/C [9]: 62%
- viability, T/C [10]: 30.2%
- viability, T/C [11]: 0.15%
- viability, T/C [12]: 0.1%
- viability, T/C [13]: 60.8%
- viability, T/C [14]: 75.7%
- viability, T/C [15]: 65.5%
- viability, T/C [16]: 36.8%
- viability, T/C [17]: 0.27%
- viability, T/C [18]: 0.1%
- viability, T/C [19]: 71%
- viability, T/C [20]: 65.6%
- viability, T/C [21]: 57.6%
- viability, T/C [22]: 38.4%
- viability, T/C [23]: 0.35%
- viability, T/C [24]: 0.13%
- viability, T/C [25]: 42.5%
- viability, T/C [26]: 25.7%
- viability, T/C [27]: 27%
- viability, T/C [28]: 30.6%
- viability, T/C [29]: 0.41%
- viability, T/C [30]: 0.14%
- viability, T/C [31]: 29.7%
- viability, T/C [32]: 28.4%
- viability, T/C [33]: 20.8%
- viability, T/C [34]: 12.5%
- viability, T/C [35]: 0.86%
- viability, T/C [36]: 0.16%

Compound: COc1ccc([C@@H](O)c2cc(-c3ncnc4cc(N5CCOCC5)ccc34)c(F)cc2Cl)nn1 + Cc1cnc(CNC(=O)c2c(=O)c3ccc(N4CCCN(C)CC4)nc3n3c2sc2ccccc23)cn1
- IC50 (second compound 0.0316 µM): 631 nM
- IC50 (second compound 0.1 µM): 392 nM
- IC50 (second compound 0.316 µM): 157 nM
- IC50 (second compound 1 µM): < 31.6 nM
- IC50 (second compound 3.16 µM): < 31.6 nM
- IC50 (second compound 10 µM): < 31.6 nM
- viability, T/C [1]: 59.5%
- viability, T/C [2]: 67.4%
- viability, T/C [3]: 71.8%
- viability, T/C [4]: 39.2%
- viability, T/C [5]: 27.8%
- viability, T/C [6]: 20.3%
- viability, T/C [7]: 49.8%
- viability, T/C [8]: 65%
- viability, T/C [9]: 48.9%
- viability, T/C [10]: 41.4%
- viability, T/C [11]: 26.3%
- viability, T/C [12]: 16.8%
- viability, T/C [13]: 47.6%
- viability, T/C [14]: 60.9%
- viability, T/C [15]: 44.6%
- viability, T/C [16]: 34.8%
- viability, T/C [17]: 25.6%
- viability, T/C [18]: 13.4%
- viability, T/C [19]: 32.3%
- viability, T/C [20]: 42.6%
- viability, T/C [21]: 34.8%
- viability, T/C [22]: 28.4%
- viability, T/C [23]: 17.2%
- viability, T/C [24]: 5.89%
- viability, T/C [25]: 5.04%
- viability, T/C [26]: 14.9%
- viability, T/C [27]: 16.5%
- viability, T/C [28]: 0.16%
- viability, T/C [29]: 0.14%
- viability, T/C [30]: 0.29%
- viability, T/C [31]: 0.11%
- viability, T/C [32]: 0.16%
- viability, T/C [33]: 0.16%
- viability, T/C [34]: 0.2%
- viability, T/C [35]: 0.17%
- viability, T/C [36]: 0.15%
